# Laboratory results from patent US8815305B2, “Composition containing a plant extract and process for producing same” (BASF Beauty Care Solutions France S.A.S., priority 2003, dated 2014).
# pIC50, pKi: −log10 of the molar value.
# How the values were obtained:
# bovine trypsin = target: T1, bovine trypsin (Bos taurus, UniProt P00760); conditions: competitive or non-competitive; cited from earlier work
# T1 sequence (P00760 24-246): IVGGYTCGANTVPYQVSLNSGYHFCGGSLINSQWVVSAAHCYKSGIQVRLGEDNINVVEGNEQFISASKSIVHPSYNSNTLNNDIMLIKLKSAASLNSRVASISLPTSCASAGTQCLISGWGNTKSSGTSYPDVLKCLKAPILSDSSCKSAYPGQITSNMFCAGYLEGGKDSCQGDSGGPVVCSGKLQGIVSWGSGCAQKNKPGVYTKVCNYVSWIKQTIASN
# bovine chymotrypsin = bovine chymotrypsin (Bos taurus, UniProt P00766); conditions: competitive or non-competitive; cited from earlier work
# [1] = target: porcine pancreatic elastase (Sus scrofa, UniProt P00772); conditions: cited from earlier work
# leucine aminopeptidase [2] = conditions: cited from earlier work
# leucine aminopeptidase [3] = conditions: cited from earlier work; remark: listed apart in the source
# human keratinocytes = experiment: Cytophotoprotection of human keratinocytes against UV-B radiation; format: cell-based; conditions: for Cell number, % against control / Released LDH, % against control / Released PGE2, % against control: UVB
# Description: UV-B irradiation (from 280 to 320 nm) of the human skin induces a cutaneous inflammation mainly by activation of an enzyme (phospholipase A2 or PLA2), which releases arachidonic acid from the cell membranes of the cells of the skin (V. A. De Leo, D. Hanson, I. B. Weinstein and L. C. Harber—Ultraviolet radiation stimulates the release of arachidonic acid from mammalian cells in culture—Photochemistry and Photobiology (1985) volume 41N°1 pages 51-56). Then other specific enzymes (so called cyclo-oxygenases) transform arachidonic acid in active components called prostaglandines (or PG) which are secreted out of the cells. The fixation of certain prostaglandins (PGE2) on specific skin receptors is followed by redness and swelling as after a sunburn. On cultured human cells, these UV-B effects on cell membranes are associated with a release in the supernatant medium of a cytoplasmic enzyme, the Lactate Dehydrogenase or LDH (B. Bonnekoh, B. Farkas, J. Geisel and G. Mahrle—Lactate dehydrogenase release as an indicator of dithranol-induced membrane injury in cultured human keratinocytes. Dermatological research (1990) volume 282, pages 325-331).
# Expressed in keywords, the experiments were carried out as follows: • Inoculation of human keratinocytes within growth medium (standard medium with fetal calf serum (FCS) • Incubation 3 days at 37° C., CO2=5% • Exchange of growth medium with balanced salt solution containing ingredient to be tested • Irradiation of keratinocytes by UV-B: 50 mJ/cm^2 (DUKE GL40E lamp) (A DUKE GL40E lamp is a certain type of marketed sunlamp well known to the skilled artisan) • Incubation 1 day at 37° C., CO2=5% • Numeration of adherent cells after trypsination (trypsination is a process based on the use of the enzyme trypsine which is a protease allowing the retrieval of cell from the support in order to seed the cells into a bigger flask and therefore to expand the cell culture) • Recovery of supernatant medium for spectrophotometric determination of the activity of LDH, and PGE2 by ELISA method
# [4] = target: T2, human leucocyte elastase (HLE) (Homo sapiens, UniProt P08246); conditions: read-out: HLE inhibitory activity IC(50); cited from earlier work
# T2 sequence (P08246 30-267): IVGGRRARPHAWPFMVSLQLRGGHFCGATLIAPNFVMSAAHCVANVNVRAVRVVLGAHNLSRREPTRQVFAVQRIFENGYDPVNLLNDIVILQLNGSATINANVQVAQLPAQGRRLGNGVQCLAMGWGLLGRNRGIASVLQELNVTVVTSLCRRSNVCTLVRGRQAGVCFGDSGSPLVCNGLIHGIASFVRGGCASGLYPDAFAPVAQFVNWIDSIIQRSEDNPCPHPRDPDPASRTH
# [5] = system: Croton oil induced oedema of the mouse ear; conditions: cited from earlier work
# [6] = target: T2, human leucocyte elastase (HLE); conditions: cited from earlier work
# [7] = system: skin chronic inflammation; conditions: in vivo; cited from earlier work
# [8] = system: 5-lipoxygenase products in human neutrophils; conditions: cited from earlier work
# human fibroblasts = experiment: Cytophotoprotection of human fibroblasts against UV-A radiation; format: cell-based
# Procedure: The cytoprotection against UV-A radiation was evaluated by a test on human fibroblasts because UV-A radiation penetrates through the epidermis until the derma where it induces oxidative stress (DALLE CARBONARE M, PATHAK M A; Skin photosensitising agents and the role of reactive oxygen species in photoaging; JOURNAL OF PHOTOCHEMISTRY & PHOTOBIOLOGY, 1992, 14, 1-2, pages 105-124. This oxidative stress was evaluated in vitro by measuring of the level of released MDA (malonaldehyde) and of intracellular GSH (reduced glutathione) (Morliere P., Moisan A., Santus R., Huppe G., Mazière J. C., Dubertret L.: UV-A induced lipid peroxydation in cultured human fibroblasts. Biochim. Biophys. Acta, 1084, 3, pages 261-269 (1991)).
# Expressed in keywords, the experiments were carried out as follows: • Inoculation of human fibroblasts within a growth medium (standard medium with foetal calf serum (FCS) • Incubation 3 days at 37° C., CO2=5% • Exchange of growth medium with balanced salt solution • Irradiation of fibroblasts by UV-A: 20 J/cm^2 (black light TFWN lamp) (A TFWN lamp is a certain type of marketed sunlamp well known to the skilled artisan) • Exchange of growth medium with standard medium without FCS but containing ingredient to be tested • Incubation 3 days at 37° C., CO2=5% • Recovery of supernatant medium for spectrophotometric determination of the malonaldialdehde (or MDA) rate • Cells number determined by evaluation of the levels of cellular proteins (Bradford's method) and the rate of cellular GSH was evaluated according to the method of Hissin
# elastase from pancreas = elastase from pancreas (Sus scrofa, UniProt P00772); experiment: Elastase inhibition, Elastin-Congo red as substrate; format: biochemical; conditions: 30 minutes at room temperature, Elastin-Congo red
# Procedure: This test was carried out with an elastase from pancreas on Elastin labelled with Congo red. The time of incubation was 30 minutes at room temperature and the optical density of released Congo red was recorded after centrifugation at a wavelength of 520 nm. al-antitrypsine was used as positive reference.
# The following table summarizes the results expressed as EC 50 in % w/v. (EC 50 in % w/v is the concentration in % w/v which reduces the enzymatic activity by 50%.)
# Sequence of porcine pancreatic elastase (P00772 27-266): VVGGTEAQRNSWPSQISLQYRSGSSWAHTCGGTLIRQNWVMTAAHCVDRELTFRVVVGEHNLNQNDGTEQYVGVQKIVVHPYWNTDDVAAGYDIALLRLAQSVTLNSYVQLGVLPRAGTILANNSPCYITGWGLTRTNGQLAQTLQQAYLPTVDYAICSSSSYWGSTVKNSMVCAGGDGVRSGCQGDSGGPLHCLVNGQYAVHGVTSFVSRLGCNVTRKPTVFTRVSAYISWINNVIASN
# Sequence of elastase from pancreas (P00772 27-266): as above
compound,measurement,setting,value
C=C(C)[C@@H]1CC[C@]2(C)CC[C@]3(C)C(CC[C@@H]4[C@@]5(C)CC[C@H](OC(=O)CCCCCCC/C=C/C/C=C/CCCCC)C(C)(C)[C@@H]5CC[C@]43C)[C@@H]12 (stereo partly drawn) [Lupeol linoleate],pKi,bovine trypsin,5.15
C[C@H]1[C@H](C)CC[C@]2(C)CC[C@]3(C)C(=CC[C@@H]4[C@@]5(C)CC[C@H](O)C(C)(C)[C@@H]5CC[C@]43C)[C@H]12 [alpha-amyrin],pKi,bovine chymotrypsin,4.74
same,inhibition of porcine pancreatic elastase,[1],ineffective or very weak
same,inhibition of Lucilia cuprina leucine aminopeptidase,leucine aminopeptidase [2],ineffective or very weak
same,pKi,bovine trypsin,4.54
same,inhibition of Helicoverpa punctigera leucine aminopeptidase,leucine aminopeptidase [3],ineffective or very weak
"COc1ccc2c(c1)c(CC(=O)O)c(C)n2C(=O)c1ccc(Cl)cc1 [Indomethacine, Indomethacin]",UV toxic effects on the number of viable cells (cell number and released LDH),human keratinocytes,moderately reduced
same,release of inflammatory mediators such as PGE2,human keratinocytes,drastically reduced
same,"Cell number, % against control",human keratinocytes,34%
same,"Released LDH, % against control",human keratinocytes,77%
same,"Released PGE2, % against control",human keratinocytes,0%
CCCCCCCCCCCCCCCC(=O)O[C@H]1CC[C@]2(C)[C@H]3CC=C4[C@@H]5[C@@H](C)[C@H](C)CC[C@@]5(C)CC[C@@]4(C)[C@]3(C)CC[C@H]2C1(C)C [alpha-Amyrin palmitate],pKi,bovine chymotrypsin,5.22
C=C(C)[C@@H]1CC[C@]2(C)CC[C@]3(C)[C@H](CC[C@@H]4[C@@]5(C)CC[C@H](O)C(C)(C)[C@@H]5CC[C@]43C)[C@@H]12 [lupeol],pKi,bovine chymotrypsin,5.10
same,pIC50,[4],5.72
same,inhibition of porcine pancreatic elastase,[1],ineffective or very weak
same,inhibition of Lucilia cuprina leucine aminopeptidase,leucine aminopeptidase [2],ineffective or very weak
same,pKi,bovine trypsin,4.66
same,inhibition of Helicoverpa punctigera leucine aminopeptidase,leucine aminopeptidase [3],ineffective or very weak
CC1=CC[C@@]2(C)[C@H]([C@@H]1C)[C@H]1CC[C@@H]3[C@@]4(C)CC[C@H](O)C(C)(C)[C@@H]4CC[C@@]3(C)[C@]1(C)C[C@@H]2O [faradiol],anti-oedematous activity,[5],more active than its esters and than psi-taraxasterol
same,anti-oedematous effect compared with indomethacin,[5]; equimolar dose,same effect
CC1(C)[C@@H](O)CC[C@]2(C)[C@H]3C(=O)C=C4[C@@H]5C[C@@](C)(C(=O)O)CC[C@]5(C)CC[C@@]4(C)[C@]3(C)CC[C@@H]12 [18 beta-glycyrrhetic acid],interaction with the ursolic acid binding site of HLE,[6],can also interact with this binding site
faradiol-3-myristic acid ester,anti-oedematous activity,[5],nearly the same dose dependent anti-oedematous activity
C[C@H]1[C@H](C)CC[C@]2(C(=O)O)CC[C@]3(C)C(=CC[C@@H]4[C@@]5(C)CC[C@H](O)C(C)(C)[C@@H]5CC[C@]43C)[C@H]12 [ursolic acid],pIC50,[4],5.36
same,activity on chronic dermal inflammation,[7],significantly effective
same,pKi,"[6]; hydrolysis of peptide substrates in phosphate-buffered saline, read-out: inhibition constant, HLE",5.22 to 5.40
C=C(C)[C@@H]1CC[C@]2(C)CC[C@]3(C)[C@H](CC[C@@H]4[C@@]5(C)CC[C@H](OC(=O)CCCCCCCCCCCCCCC)C(C)(C)[C@@H]5CC[C@]43C)[C@@H]12 [lupeol palmitate],pKi,bovine trypsin,5.00
CC1=CCC2(C)CCC3(C)C(CCC4C5(C)CCC(O)C(C)(C)C5CCC43C)C2C1C (stereo not drawn) [psi-taraxasterol],anti-oedematous activity,[5],slightly lower effect
CC(=O)O[C@H]1CC[C@]2(C)[C@H]3CC=C4[C@@H]5CC(C)(C)CC[C@]5(C)CC[C@@]4(C)[C@]3(C)CC[C@H]2C1(C)C [beta-amyrin acetate],5-HETE synthesis,[8],reduced
same,LTB4 synthesis,[8],without effect
CC(=O)O[C@H]1CC[C@]2(C)[C@H]3CC=C4[C@@H]5[C@@H](C)[C@H](C)CC[C@]5(C)CC[C@@]4(C)[C@]3(C)CC[C@H]2C1(C)C [alpha-amyrin acetate],5-HETE synthesis,[8],reduced
same,LTB4 synthesis,[8],without effect
CC1(C)CC[C@]2(C)CC[C@]3(C)C(=CC[C@@H]4[C@@]5(C)CC[C@H](O)C(C)(C)[C@@H]5CC[C@]43C)[C@@H]2C1 [beta-amyrin],5-HETE synthesis,[8],reduced
same,LTB4 synthesis,[8],without effect
Tocopherol,protection of human fibroblasts from toxic UVA effects,human fibroblasts,strongly protected
same,"GSH/protein, % against control","human fibroblasts; UV-A 20 J/cm^2, dose 0.0003%",89%
same,"Released MDA, % against control","human fibroblasts; UV-A 20 J/cm^2, dose 0.0003%",23%
same,"cell's protein, % against control","human fibroblasts; UV-A 20 J/cm^2, dose 0.0003%",106%
C[C@H]1C(=O)CC[C@@H]2[C@]1(C)CC[C@H]1[C@@]2(C)CC[C@@]2(C)[C@@H]3CC(C)(C)CC[C@]3(CO)CC[C@]12C [canophyllol],pIC50,[4],5.60
A1 anti trypsine: positive reference of the elastase test,Elastase EC 50 (concentration which reduces the enzymatic activity by 50%),elastase from pancreas,0.03% w/v
CCCCCC=CCC=CCCCCCCCC(=O)OC1CCC2(C)C(CCC3(C)C2CC=C2C4C(C)C(C)CCC4(C)CCC23C)C1(C)C (stereo not drawn) [alpha-amyrin linoleate],pKi,bovine chymotrypsin,4.55
same,pKi,bovine trypsin,4.80
CC1(C)CC[C@]2(C(=O)O)CC[C@]3(C)C(=CC[C@@H]4[C@@]5(C)CC[C@H](O)[C@@](C)(CO)[C@@H]5CC[C@]43C)[C@@H]2C1 [hederagenin],interaction with the ursolic acid binding site of HLE,[6],can also interact with this binding site
CC(=O)Oc1ccccc1C(=O)O [Aspirin],UV toxic effects on the number of viable cells (cell number and released LDH),human keratinocytes,distinctly reduced
same,release of inflammatory mediators such as PGE2,human keratinocytes,distinctly reduced
same,"Cell number, % against control",human keratinocytes; dose 0.0003%,67%
same,"Released LDH, % against control",human keratinocytes; dose 0.0003%,13%
same,"Released PGE2, % against control",human keratinocytes; dose 0.0003%,0%
CCCCCCCCCCCCCCCC(=O)OC1CCC2(C)C(CCC3(C)C2CCC2C4C(C)C(C)=CCC4(C)C(O)CC23C)C1(C)C (stereo not drawn) [faradiol-3-palmitic acid ester],anti-oedematous activity,[5],nearly the same dose dependent anti-oedematous activity
